Test results published in PubChem BioAssay (NCI).
Values after ≈ are worked out from the molar mass of the structure shown. Values joined by “and” are separate entries in the source; they are usually repeats but may differ in a detail not shown here. Equal values may be shown once.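 Compound exposure: 48 hours, 5 concentrations, 96-well plates. The concentration for 50% growth inhibition is given as GI50. At the TGI there is no net growth.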

What was measured:
Test in all cases: NCI anticancer screen, dose series, 48 h
UO-31 renal = system: UO-31 renal
RPMI-8226 leukemia = system: RPMI-8226 leukemia
TK-10 renal = system: TK-10 renal
SF-268 CNS = system: SF-268 CNS
OVCAR-5 ovarian = system: OVCAR-5 ovarian
SK-OV-3 ovarian = system: SK-OV-3 ovarian
A498 renal = system: A498 renal
SF-539 CNS = system: SF-539 CNS
T-47D breast = system: T-47D breast
NCI-H522 lung = system: NCI-H522 lung

Row | Compound | TGI (UO-31 renal) [µM] | TGI (RPMI-8226 leukemia) | TGI (TK-10 renal) [µM] | TGI (SF-268 CNS) [µM] | TGI (OVCAR-5 ovarian) [µM] | TGI (SK-OV-3 ovarian) [µM] | TGI (A498 renal) | TGI (SF-539 CNS) [µM] | TGI (T-47D breast) [µM] | TGI (NCI-H522 lung) | GI50 (TK-10 renal) [µg/mL] | GI50 (OVCAR-5 ovarian) [µg/mL]
1 | COc1cccc(/C=C2\S/C(=N/Nc3nc(-c4ccc([N+](=O)[O-])cc4)cs3)NC2=O)c1O | 28.9 | 35.2 µM | 67.6 | 21.8 | 54.7 | 79.8 | 50.9 µM | 22 | 27.5 |  |  | 
2 | O=c1oc2c(Cl)cc(Cl)cc2cc1C1=CSC2=NCCN12 | > 100 | > 100 µM | > 100 |  | > 100 | > 100 |  | > 100 | > 100 |  |  | 
3 | CSc1nc2c(c(=O)[nH]1)N=C(c1ccccc1)CC(c1ccccc1)N2 (stereo not drawn) | > 100 | 71 µM |  |  | > 100 | 89.7 | > 100 µM | 66.3 |  | 43.9 µM |  | 
4 | CC[C@@]1(O)C(=O)OCc2c1cc1n(c2=O)Cc2c-1nc1ccccc1c2/C=N/NC(=O)c1ccc(N)cc1 | 25.6 | > 100 µM | > 100 | > 100 | > 100 | > 100 | 6.18 µM | 0.019 | 0.389 |  |  | 
5 | CNC1(C(=O)O)CC1 |  | > 100 µM | > 100 | > 100 | > 100 |  | > 100 µM | > 100 | > 100 | > 100 µM |  | 
6 | O=C(c1cc2c(c3ccccc13)NC1(CCCCC1)N=C2C(F)(F)F)C(F)(F)F | 11.8 |  | 14 | 20 | 21.5 | 18.7 | 20.8 µM | 5.59 | 13.5 | 6.95 µM |  | 
7 | Cc1ccc(C(=O)N/N=C(\N=Nc2ccc(C(=O)O)cc2)c2ccc(N(CCC#N)CCC#N)cc2C)cc1 | > 100 | > 100 µM | > 100 |  | > 100 | > 100 | > 100 µM | > 100 | > 100 |  |  | 
8 | CC(=O)CC1=C(OC(C)C)C2(OCCO2)C1O (stereo not drawn) | > 100 |  | > 100 | > 100 | > 100 | > 100 | > 100 µM | > 100 | > 100 | > 100 µM |  | 
9 | COc1cc2c(c(OC)c1OC)-c1ccc(SC)cc1C(O)CC2 (stereo not drawn) |  | > 100 µM and 45.9 µg/mL | > 100 | 11.6 | > 100 |  | > 100 µM and 0.0742 µg/mL |  | > 100 | 235 nM and 33.7 µg/mL | 14.2 (≈ 41 µM) | 0.249 (≈ 0.719 µM)
10 | Cc1cnc2[nH]c(-c3ccc4ccccc4c3)cc(=O)c2c1 | > 100 | > 100 µM | > 100 | > 100 | > 100 | > 100 |  | 9.07 | > 100 | 2.25 µM |  | 
11 | CC(C)Oc1c(-c2ccc(F)cc2)c(O)c2c3c1oc(=O)n3C=CC2C (stereo not drawn) | 25.5 | 34.7 µM | 30.7 | 35.2 | 62.2 | > 100 | 28.2 µM | 26.4 |  | 27.2 µM |  | 
12 | Cc1ccc(N(C)S(=O)(=O)c2ccccc2[N+](=O)[O-])cc1 | > 100 | > 100 µM | > 100 | > 100 | > 100 |  |  | > 100 | > 100 | 94.6 µM |  | 
13 | Cc1ccc(N/C(SCc2ccccc2)=C(\C(Cl)=C(Cl)Cl)[N+](=O)[O-])c(C)c1 | 63.5 | > 100 µM |  | 29.8 | 89.8 | > 100 | 74.1 µM | 46.1 | 69.3 |  |  | 
14 | CCCCCCCCC/C=C1\CCC(CN(C)C)C1=O (stereo not drawn) | 4.04 |  | 4.53 | 3.71 | 28 | 32 | 6.4 µM | 3.18 |  | 4.78 µM |  | 
15 | CCOC(=O)c1nc2ccc(C(F)(F)F)cc2nc1Oc1ccc(C(=O)OC)cc1 | > 100 | > 100 µM | > 100 | > 100 |  | > 100 | > 100 µM | > 100 | > 100 |  |  | 
16 | Cc1[nH]c(=O)nc(NNCc2ccc(Cl)cc2)c1C(=O)Nc1ccc(Cl)cc1 | > 100 | > 100 µM | > 100 |  | > 100 | > 100 | > 100 µM | > 100 | > 100 |  |  | 
17 | CCCCCCCCCCCCCCCCCCOCC(O)COP(=O)(O)OCC1OC(n2ccc(N)nc2=O)C(O)C1O (stereo not drawn) |  | 52.9 µM | 51.1 | 49.8 | > 100 | > 100 | 40.6 µM | 34.4 | > 100 | 41.8 µM |  | 
18 | Cc1ccc2c(/C=C/c3ccc(N(C)C)cc3)ccc(C(C)C)cc1-2 | > 100 | > 100 µM | > 100 | > 100 | > 100 | > 100 | > 100 µM |  | > 100 | > 100 µM |  | 
19 | N#Cc1c(-c2ccccc2)c(CN2CCCCC2)c(=O)n2c1[nH]c1ccccc12 | > 100 |  | > 100 | > 100 | > 100 | > 100 | > 100 µM | > 100 | > 100 | 61.7 µM |  | 
20 | Cc1cnc2sn(-c3ccc(Br)cc3)c(=O)c2c1 | > 100 | > 100 µM | > 100 | > 100 | > 100 | > 100 |  | > 100 | 48.4 | 16.9 µM |  | 
21 | CC(=O)Nc1cccc(N=NN(C)C)c1 | > 100 | > 100 µM |  | > 100 | > 100 | > 100 | > 100 µM | > 100 |  | > 100 µM |  | 
22 | CC(=O)N(C(C)=O)c1cc2c3c(c1)CCCN3CCC2 |  | > 10 µM | > 10 | > 10 | > 10 | > 10 | > 10 µM | > 10 | > 10 | > 10 µM |  | 
23 | OC1CSc2nc3ccccc3n2C1 (stereo not drawn) | > 100 | > 100 µM | > 100 | > 100 | > 100 | > 100 | > 100 µM | > 100 | > 100 |  |  | 
24 | Cc1cccc(N/C(Sc2ccccc2)=C(/C(Cl)=C(Cl)Cl)[N+](=O)[O-])c1 | 29.9 | > 100 µM |  | 34.2 | 40.8 | 47.6 | 40.6 µM | 31.3 | 42.7 |  |  | 
